Series [1] concerns C6 glioma cells. The note with it: cited from earlier work.
In series [2] the test system is Leukocytes, Lymphocytes, HPCs. The note with it: in 30 minutes; cited from earlier work.
Series [3] has as its system hematopoietic progenitor cells (HPCs). The note with it: in 24-96 hours; cited from earlier work.
Series [4] concerns lymphocytes. The note with it: cited from earlier work.
For series [5], the system named is natural killer cells. The note with it: cited from earlier work.
Series [6] deals with myeloma cells and natural killer cells. To be noted: cited from earlier work.
Series [7] deals with 5T33 myeloma cells. To be noted: cited from earlier work.
For series [8], the system named is macrophages, breast cancer cells, and myeloma cells. The note with it: at 24 hours; cited from earlier work.
For series [9], the system named is mMCs, hMSCs and mDCs. In words: ApoTox-Glo viability/cytotoxicity and caspase 3/7 apoptosis assay. It counts as cell-based, mouse, human. The note with it: 2 μM for 16 hours. As to the method: The effect of radiolabeling on cellular viability was also assessed using the ApoTox-Glo viability, cytotoxicity and caspase 3/7 apoptosis assay (Promega Corporation, Madison, Wis., USA). Unlabeled cells served as control. A known number of unlabeled and ^89Zr-labeled cells (˜10^4/well) were plated in a 96-well culture plate. The culture medium was replaced daily and maintained at 37° C. in a CO2 incubator. At day 7, cell viability, cytotoxicity and apoptosis was quantified in triplicate using the ApoTox-Glo assay. As positive controls, cells were incubated with 30 μg/mL digitonin for 30 minutes for the viability and cytotoxicity assays, while 2 μM staurosporine was added for 16 hours for the caspase 3/7 dependent apoptosis assay.

Series [10] concerns scAAV1-Cre and AAV2-GFP. Briefly: Labeling of adeno-associated viruses with ^89Zr-DBN. To be noted: after 30 minutes of labeling. As to the method: Post-labeling, the ^89Zr-DBN-AAVs were purified from free label and reaction mixture using size exclusion PD-10 desalting columns. The eluted virus in fractions were quantified using protein assay and radioactivity elution pattern was recorded.

In series [11] the test system is mMCs, hMSCs and mDCs. In words: Incorporation of ^89Zr-DBN in protein fraction (subcellular protein fractionation). It counts as cell-based, mouse, human. To be noted: days 1, 4 and 7 after labeling; all cell types studied. As to the method: To understand the sub-cellular localization of the label, incorporation of ^89Zr-DBN into different protein fractions in mMCs, hMSCs and mDCs was evaluated using a subcellular protein fractionation kit (Piercenet Thermo Scientific) at day 1, 4 and 7 post-labeling. The cytosolic proteins, hydrophobic membrane proteins, nuclear proteins and cytoskeletal proteins were isolated and each protein fraction was counted for radioactivity using a 2480 Wizard^2 automatic gamma counter (Perkin Elmer, Waltham, Mass., USA).

Series [12] has as its system JAWSII mouse dendritic cells (mDCs). Briefly: Labeling of cells with ^89Zr-DBN (cell-bound radioactivity). It counts as cell-based. To be noted: 6×10^6 cells incubated 30 minutes with ~6 MBq. As to the method: (§1) B16-F10 Mouse melanoma cells (mMCs) from ATCC, Manassas, Va., USA, human mesenchymal stem cells (hMSCs) from patients and JAWSII mouse dendritic cells (mDCs) from ATCC, Manassas, Va., USA, were used for evaluating the ^89Zr-DBN based labeling method. The mMCs and hMSCs were cultured in complete DMEM (DMEM+10% FBS) and mDCs were cultured in complete alphaMEM (alpha MEM+4 mM L-glutamine+1 mM sodium pyruvate+5 ng/mL murine GM-CSF+20% FBS). The cultures were maintained in a humidified cell culture chamber (21% O2, 74% N2, 5% CO2) at 37° C.
(§2) The adherent cells were trypsinized and washed once with PBS and twice with HEPES buffered GIBCO Hanks Balanced Salt solution buffered (ThermoFisher, Atlanta, Ga., USA) (H-HBSS), pH 7.5. The cell labeling reaction was performed with ˜6×10^6 cells in 500 μl H-HBSS at pH 7.5. […]. After incubation, the cells were washed 4 times with appropriate volume of complete medium. The final labeling efficiency was calculated from the radioactivity bound to cells after all the washes.

The test system of series [13] is B16-F10 Mouse melanoma cells (mMCs). The series is described as above. Type of series: cell-based. To be noted: 6×10^6 cells incubated 30 minutes with ~6 MBq. As to the method: as §1, §2
Series [14] has as its system human mesenchymal stem cells (hMSCs). The series is described as above. It counts as cell-based. To be noted: 6×10^6 cells incubated 30 minutes with ~6 MBq. As to the method:
as §1, §2

Series [15] relates to mMCs, hMSCs and mDCs. In words: Labeling of cells with ^89Zr(HPO4)2 and ^89Zr-DBN, labeling efficiency over all cell types. It counts as cell-based, mouse, human. As to the method:
The adherent cells were trypsinized and washed once with PBS and twice with HEPES buffered GIBCO Hanks Balanced Salt solution buffered (ThermoFisher, Atlanta, Ga., USA) (H-HBSS), pH 7.5. The cell labeling reaction was performed with ˜6×10^6 cells in 500 μl H-HBSS at pH 7.5. […] After incubation, the cells were washed 4 times with appropriate volume of complete medium. The final labeling efficiency was calculated from the radioactivity bound to cells after all the washes.

Series [16] has as its system mMCs, hMSCs and mDCs. Briefly: Efflux of ^89Zr-DBN from labeled cells. The note with it: over 7 days post-labeling, medium replaced daily.
Protocol: The medium was replaced with fresh medium daily for 7 days and radioactivity in the replaced medium was counted. For mDCs with mix of adherent and suspension cells, the plate was centrifuged at 1000 rpm for 10 minutes before replacing the medium to avoid loss of unattached ^89Zr-labeled cells.

Entries after “also recorded” stand apart in the source; their conditions may differ. Read-outs that look alike come from different tables or passages of the source.

On to `CNC(=S)NN=CC(C)=NNC(=S)NC.[64Cu]` [^64Cu-PTSM, ^64Cu-pyruvaldehyde-bis(N4-methylthiosemicarbazone)], for which, in series [1] (C6 glioma cells, in 24-96 hours), the “extent of efflux (as high as)” value is 70-80%. Moreover, in [1] (in 5 hours), the cell labeling yield is 70-85% cell labeling yield in. In [1] (in 24 hours), the effluxed radioactivity entry is given as “cells (~80% effluxed in 24”.
Regarding `[In+3].[O-]c1cccc2cccnc12.[O-]c1cccc2cccnc12.[O-]c1cccc2cccnc12` [^111In-oxine], the cell labeling yield in [2] is recorded as ~80% cell labeling yield in 30. Besides, the “extent of efflux (as high as)” value in series [3] and in [4] (in 24-96 hours) was 70-80% in each case. Further, the effluxed radioactivity entry in [4] (in 24 hours) is reported as “(~70% effluxed in 24 hours)”.
For the compound `c1cnc2c([O][89Zr]([O]c3cccc4cccnc34)([O]c3cccc4cccnc34)[O]c3cccc4cccnc34)cccc2c1` [^89Zr-oxine], the “viability of radiolabeled cells” value in series [5] (after 6 days) is recorded as 20-30%; in series [5] (over the first 24 hours), 60-100%. For the same compound, the cell labeling yield in series [6] (in 30 minutes) is ~32% cell labeling yield in 30. Further, in series [6] (possibly due to oxine exposure), the “cell viability after labeling” value is reported as “Loss of cell viability possibly”. In addition, the “viability of labeled cells” value in series [7] (in first 24 hours) is reported as 76.3±3.2%. In addition, the “viability of labeled cells, initial” value in series [7] (starting value before the decline) is on record as 93%. In addition, in series [8], the efflux is given as 10-29%.
Regarding `CN[C@@H]1C[C@H]2O[C@@](C)([C@@H]1OC)n1c3ccccc3c3c4c(c5c6ccccc6n2c5c31)C(=O)NC4` [staurosporine], the “apoptosis (caspase 3/7), positive control” value in series [9] is on record as “apoptosis was increased”.
Regarding “^89Zr-labeled p-isothiocyanato-benzyl-desferrioxamine [^89Zr-DBN]”, the “viral labeling yield (radioactivity concentration)” value in series [10] is given as about 20 mCi/10^14 viral particles. The “^89Zr-radioactivity incorporated in hydrophobic membrane protein fraction” value in series [11] is about 99%. Further, the “Radioactivity concentration of labeled cells” value was 0.39±0.20 MBq/10^6 cells in series [12], 0.50±0.10 MBq/10^6 cells in [13] and 0.47±0.10 MBq/10^6 cells in series [14]. In series [15], the “Radioactivity concentrations of labeled cells achieved without a negative effect on cellular viability” value was “up to 0.5 MBq/1×10^6 cells”. The cell labeling efficiency in series [15] (30 minutes labeling at 37° C., ~6×10^6 cells, ~6 MBq, cell-bound radioactivity after washes, depending on cell type) is reported as 30-50%. Further, the “efflux of ^89Zr-radioactivity from labeled cells” value in series [16] is “negligible efflux; also recorded: no efflux of radiolabel was observed”.

Source of the values: patent publication US11534506B2, “Methods for cell labeling and medical imaging” (priority 2015, dated 2022).
